Experimental data published in article PMC7179450, “Primary Human Hepatocytes, But not HepG2 or Balb/c 3T3 Cells, Efficiently Metabolize Salinomycin and Are Resistant to Its Cytotoxicity” (Molecules, 2020).
Read-outs that look alike come from different tables or passages of the source.

Columns and labels:
[1] = tested on: primary human hepatocytes (PHH); assay: NRU assay (neutral red uptake, lysosomal activity) in primary human hepatocytes; type: cell-based; conditions: for EC50: Homo sapiens, Hepatocyte, mean ± SEM, n = 3, read-out: EC50 (effective concentration)
Protocol: Cryopreserved PHH were purchased from the Primacyt GmbH (Schwerin, Germany). Two different lots were chosen based on CYP activity. The donor was a person. The post-thaw viability was 94.6% for lot HH160531 (used in two repetitions) and 85.0% for lot HH130805. The initial cell viability was determined with the trypan blue exclusion test. The cells were thawed and purified using the Plating and Thawing Kit (Primacyt GmbH). Purified hepatocytes were resuspended in Hepatocyte Plating Medium (Primacyt GmbH) and seeded on collagen-coated 96-well plates at a density of 9 × 10^5 cell/mL and incubated at 37 °C with 5% CO2. After 6 h of incubation, the medium was removed and the cells were washed with PBS. Then Human Hepatocyte Maintenance Medium (HHMM) (Primacyt GmbH) with the studied drugs was added to hepatocytes (100 µL/well). The culture conditions were kept according to the manufacturer’s protocol.
(§1) The concentration ranges of the drugs were chosen according to their solubility and their plasma level. Each drug was dissolved in DMSO. The final concentration of DMSO was 0.1% or 0.2% in the medium for both samples and corresponding controls. […] All drug solutions in medium were freshly prepared and protected from light. SAL was tested in seven concentrations from 0.39 to 25 µg/mL. Tiamulin was added in two concentrations (1 and 10 µg/mL) or just one concentration (1 µg/mL) to cell lines or human hepatocytes, respectively. Prednisolone was tested in one concentration—1 µg/mL independent of the type of cells. […] The cytotoxicity was assessed after 24 and 48 h of exposure of cell lines or after 12 and 24 h exposure of PHH. […]
The assay, based on staining of living cells by neutral red (NR), was performed according to the protocol described by Borenfreund and Puerner. […] After 10 min of shaking, the absorbance of the dissolved NR was measured at 540 nm using a blank as a reference. Cytotoxicity was expressed as a percentage of the negative control (0.1% or 0.2% DMSO).

Balb/c 3T3 cells = assay: TPC assay in Balb/c 3T3; type: cell-based, mouse; conditions: for EC50: Mus musculus, read-out: EC50 (effective concentration)
Protocol: The HepG2 cell line was purchased from the American Type Culture Collection (ATCC® HB-8065™). The cells were cultured in Minimum Essential Medium Eagle (MEME) (Sigma–Aldrich Co. (St. Louis, MO, USA)). Normal murine embryonic fibroblasts, Balb/c 3T3 clone A31 cell line (gift from Department of Swine Diseases of the National Veterinary Research Institute in Pulawy) was cultured in Dulbecco’s Modified Eagle’s Medium (DMEM) (Invitrogen Corporations (Paisley, UK)). The media were supplemented with 10% BCS (Balb/c 3T3), 10% FBS (HepG2), 1% L-glutamine, and 1% antibiotic solution. The cells were maintained in 75 cm^2 cell culture flasks in humidified incubator at 37 °C, in an atmosphere of 5% CO2. The medium was refreshed every two or three days and the cells were trypsinized by 0.25% trypsin–0.02% EDTA after reaching 70–80% confluence. The initial cell viability was determined with the trypan blue exclusion test. Single cell suspensions were prepared and adjusted to a density of 2 × 10^5 cell/mL (HepG2) and 1 × 10^5 cell/mL (Balb/c 3T3). The cell suspension was transferred to 96-well plates (100 µL/well) and incubated for 24 h before exposure to the studied drugs.
as §1, with “respectively.” for “respectively. Prednisolone was tested in one concentration—1 µg/mL independent of the type of cells.”
The assay was based on staining total cellular protein [14]. […] The absorbance was measured at 595 nm in a microplate reader using blank as a reference. Cytotoxicity was expressed as a percentage of the negative control (0.1% or 0.2% DMSO).

For CC[C@@H](C(=O)[C@@H](C)[C@@H](O)[C@H](C)[C@@H]1O[C@@H]([C@@H](CC)C(=O)O)CC[C@@H]1C)[C@H]1O[C@]2(C=C[C@@H](O)[C@]3(CC[C@@](C)([C@H]4CC[C@](O)(CC)[C@H](C)O4)O3)O2)[C@H](C)C[C@@H]1C [SAL, salinomycin], the EC50 ([1]; 12 h exposure) was 20.4 ± 1.9 µg/mL, the EC50 ([1]; 24 h exposure) was 19.8 ± 1.6 µg/mL and the “concentration at which SAL first affected lysosomal activity” value ([1]; after 24 h (Figure S1)) was 1.56 µg/mL. The “lowest concentration with significant effect on total protein content” value (Balb/c 3T3 cells; Balb/c 3T3, 24 h, SAL alone or in both drug combinations (Figure S3)) was 0.39 µg/mL, the EC50 (Balb/c 3T3 cells; BALB/c3T3, 24 h) was 7.9 ± 1.1 µg/mL and the EC50 (Balb/c 3T3 cells; BALB/c3T3, 48 h) was 1.4 ± 0.5 µg/mL.
